Results taken from patent US20020076412A1, “METHODS FOR MODULATING THE IMMUNE SYSTEM” (priority 1987, published 2002).
“And” between values parts separate entries of the source, which are not always exact repeats. Equal entries are not always repeated. “Also recorded” adds a separate entry of the source.

Experiments:
[1] = system: EAE (RAT); experiment: Ability of peptide mixed in CFA to cause EAE; assay type: in vivo; settings: rats with EAE / rats immunized with the peptide alone in CFA
Experimental: (§1) The peptides were tested for their ability to cause EAE when mixed in CFA. […] It was seen that Ala4, Ala6, Ala7, and Ala8 are poor binders to I-E, implying that these residues 4F,6N,7I, and 8V are critical in MHC binding. […] Despite their inability to bind well to I-E, peptides ala6 and ala8 block the development of EAE when mixed with native peptide in a 5:1 molar ratio with CFA (0/6 sick with native plus ala6, 2/6 with native plus ala8, compared to 11/12 with native peptide alone). These competitor peptides Ala6 and Ala8, though poor I-E binders can apparently compete with native peptide and antagonize the T-cell receptor.

[2] = system: 87-99 T-cell line; experiment: Proliferation of encephalitogenic T-cell line raised against native peptide (87-99); assay type: cell-based, rat; settings: stimulation of T-cell line raised against native 87-99, grades negative to 4+
Experimental: As noted above, candidate peptide analogues are first tested for their property of causing or inhibiting proliferation of T-cell lines. In the proliferation assay, MBP reactive T-cell lines may be used as target cells. T-cell lines are established from lymph nodes taken from rats injected with MBP. Lymph node cells are isolated and cultured for 5 to 8 days with MBP and IL-2 as a source of T-cell growth factors. Viable cells are recovered and a second round of stimulation is performed with MBP and irradiated splenocytes as a source of growth factors. After 5 to 6 passages in this manner, the proliferative potential of the cell lines are determined. MBP-reactive lines are used in the proliferation assay. In this assay, T-cell lines are cultured for three days with various concentrations of peptide analogues and irradiated, autologous splenocytes. After three days, 0.5-1.0 μCi of [^3H]-thymidine is added for 12-16 hours. Cultures are harvested and incorporated counts determined. Mean CPM and standard error of the mean are calculated from triplicate cultures.
Development of MBP-specific T-cell lines in the rat: T-cell lines are selected from LN or SC (spinal cords) of rats immunized with guinea pig myelin basic protein or with MBP peptide (200 μg) in CFA. Supernatants from ConA-stimulated Lewis rat splenocytes are used as the source of IL-2 to expand Ag-stimulated T-cells.
(§2) Proliferation Assay: Proliferative responses were determined as described previously (Zamvil, et al., Nature 317:355, 1985). 1×10^4 T-cells were cultured with 5×10^5 X-irradiated (3,000 rad) PL/J splenic APC in 0.2 ml of culture media in 96 well flat-bottomed microtiter plates (Falcon, 3072). Peptides were added to culture giving the final concentrations indicated. At 48 hours incubation, each well was pulsed with 1 μCi ^3H-thymidine and harvested 16 hours later. The mean c.p.m. thymidine incorporation was calculated for triplicate cultures. Standard deviations from replicate cultures were within 10% mean value. Proliferation assays were performed in 96-well microtiter plates. Briefly, 2×10^4 T-cells and 10^6 irradiated thymocytes/well were incubated with stimulation medium only, Con A, or antigen. The cultures were harvested onto glass fiber filters and TdR uptake was assessed by liquid scintillation. Mean cpm were calculated from triplicate wells. In some experiments, competitor peptides, or anti I-A (OX-6) or anti-I-E antibodies (OX-17) were used to evaluate which MHC molecules were used to restrict the T-cell response, or to determine whether peptides could antagonize stimulation by the native peptide.

[3] = system: I-E; experiment: MHC I-E binding of substituted MBP 87-99 peptides; parameters: species or system rat; settings: for IC50: read-out: (M*C) IC50 I-E Binding
From the text: A set of substituted peptides based on the sequence VHFFKNIVTPRT (Seq. ID No. 39), which is identical in rats, mice and human myelin basic protein (MBP), and corresponds to the I-E restricted epitope MBP 87-99 in the rat was produced. The peptides are shown in Table 1 (Seq. ID Nos. 39 to 52 respectively) MHC binding was measure say described in Smilek et al, 1991, Gautam et al 1992a&b.

[4] = system: EAE; experiment: Competition with Ala6 and Ala5 for prevention of EAE with MBP (Table 3); assay type: in vivo, mice
Experimental: Incidence of EAE was expressed as number of mice with clinical EAE/number of mice immunized. For the induction of EAE, MBP peptide was dissolved in phosphate buffered saline (PBS) and emulsified with complete Freund's adjuvant (CFA) in a 1:1 mixture of PBS and CFA. Mice were injected with 0.2 ml emulsion at the base of the tail. On the same day and 48 h later, pertussis toxin (List Chemicals, Campbell, Calif.) was injected intravenously. Mice were examined daily for signs of EAE. For prevention of EAE, animals were immunized with MBP (0.2 mg), or in a mixture with the competitor peptide (1 mg).

[5] = system: EAE (RAT); experiment: Prevention of EAE, competitor mixed with native peptide 5:1 in CFA; assay type: in vivo; settings: sick/total; competitor plus native peptide 5:1 molar ratio in CFA; native line = native peptide alone
Experimental: as §1

[6] = system: 87-99 T-cell line; experiment: Competition assay for T-cell proliferation with native peptide; assay type: cell-based, Lewis rat; settings: blocking of proliferation of 87-99 T-cell line when given with native peptide in vitro
Experimental: The second assay is a competition assay for T-cell proliferation. In this assay, antigen presenting spleen cells are first irradiated and then incubated with native MBP peptide for 2-4 hours. These cells are then washed and further cultured with T-cells reactive to MBP. Various concentrations of candidate peptide analogues are included in cultures for an additional 3 days. Following this incubation period, each culture is pulsed with 1 μCi of [^3H]-thymidine for an additional 12-18 hours. Cultures are then harvested on fiberglass filters and counted as above. Mean CPM and standard error of the mean are calculated from data determined in triplicate cultures. Peptide analogues which inhibit proliferation to approximately 25% at a concentration of 50 μM or greater are suitable for further screening.
as §2, §1

[7] = native MBP peptide 0.2 mg mixed with competitor peptide 1 mg
[8] = peptide alone 0.2 mg in CFA, number with clinical EAE/number immunized

Structure (SMILES)	EAE (RAT) [1]	Prolif. ([2]; no key printed)	IC50 [3] [µM]	also measured
CC[C@H](C)[C@H](NC(=O)[C@H](CC(N)=O)NC(=O)[C@H](CCCCN)NC(=O)[C@H](Cc1ccccc1)NC(=O)[C@H](Cc1ccccc1)NC(=O)[C@H](Cc1c[nH]cn1)NC(=O)[C@H](C)N)C(=O)N[C@H](C(=O)N[C@H](C(=O)N1CCC[C@H]1C(=O)N[C@@H](CCCNC(=N)N)C(=O)N[C@H](C(=O)N1CCC[C@H]1C(=O)O)[C@@H](C)O)[C@@H](C)O)C(C)C [Ala 1]	6/6			
CC[C@H](C)[C@H](NC(=O)[C@H](CC(N)=O)NC(=O)[C@H](CCCCN)NC(=O)[C@H](Cc1ccccc1)NC(=O)[C@H](Cc1ccccc1)NC(=O)[C@H](C)NC(=O)[C@@H](N)C(C)C)C(=O)N[C@H](C(=O)N[C@H](C(=O)N1CCC[C@H]1C(=O)N[C@@H](CCCNC(=N)N)C(=O)N[C@H](C(=O)N1CCC[C@H]1C(=O)O)[C@@H](C)O)[C@@H](C)O)C(C)C [Ala 2]	6/6			
CC[C@H](C)[C@H](NC(=O)[C@H](CC(N)=O)NC(=O)[C@H](CCCCN)NC(=O)[C@H](Cc1ccccc1)NC(=O)[C@H](C)NC(=O)[C@H](Cc1c[nH]cn1)NC(=O)[C@@H](N)C(C)C)C(=O)N[C@H](C(=O)N[C@H](C(=O)N1CCC[C@H]1C(=O)N[C@@H](CCCNC(=N)N)C(=O)N[C@H](C(=O)N1CCC[C@H]1C(=O)O)[C@@H](C)O)[C@@H](C)O)C(C)C [Ala 3]	6/6			
CC[C@H](C)[C@H](NC(=O)[C@H](CC(N)=O)NC(=O)[C@H](CCCCN)NC(=O)[C@H](C)NC(=O)[C@H](Cc1ccccc1)NC(=O)[C@H](Cc1c[nH]cn1)NC(=O)[C@@H](N)C(C)C)C(=O)N[C@H](C(=O)N[C@H](C(=O)N1CCC[C@H]1C(=O)N[C@@H](CCCNC(=N)N)C(=O)N[C@H](C(=O)N1CCC[C@H]1C(=O)O)[C@@H](C)O)[C@@H](C)O)C(C)C [Ala 4]	0/6	negative	> 200	EAE (RAT) ([1]; listed as Ala4): incapable of causing EAE; also recorded: does not cause EAE; Prolif. ([2]; no key printed, listed as Ala4): does not stimulate; binding to I-E / MHC (in words) [3]: poor binders
CC[C@H](C)[C@H](NC(=O)[C@H](CC(N)=O)NC(=O)[C@H](C)NC(=O)[C@H](Cc1ccccc1)NC(=O)[C@H](Cc1ccccc1)NC(=O)[C@H](Cc1c[nH]cn1)NC(=O)[C@@H](N)C(C)C)C(=O)N[C@H](C(=O)N[C@H](C(=O)N1CCC[C@H]1C(=O)N[C@@H](CCCNC(=N)N)C(=O)N[C@H](C(=O)N1CCC[C@H]1C(=O)O)[C@@H](C)O)[C@@H](C)O)C(C)C [Ala 5]	0/6	negative		EAE (RAT) ([1]; listed as Ala5): incapable of causing EAE; Incidence of EAE [4, 7]: had a preventative effect on EAE; Incidence of EAE ([4]; native MBP peptide 0.2 mg mixed with competitor peptide 1 mg, listed as ala 5): 2/6; Incidence of EAE [4, 8]: 0/6
CC[C@H](C)[C@H](NC(=O)[C@H](C)NC(=O)[C@H](CCCCN)NC(=O)[C@H](Cc1ccccc1)NC(=O)[C@H](Cc1ccccc1)NC(=O)[C@H](Cc1c[nH]cn1)NC(=O)[C@@H](N)C(C)C)C(=O)N[C@H](C(=O)N[C@H](C(=O)N1CCC[C@H]1C(=O)N[C@@H](CCCNC(=N)N)C(=O)N[C@H](C(=O)N1CCC[C@H]1C(=O)O)[C@@H](C)O)[C@@H](C)O)C(C)C [Ala 6]	0/21		> 200	EAE (RAT) ([1]; listed as Ala6): incapable of causing EAE; Prolif. ([2]; key not given): weakly stimulate; EAE (RAT) [5]: 0/6; Incidence of EAE [4, 7]: completely prevented the clinical development of EAE; Incidence of EAE ([4]; native MBP peptide 0.2 mg mixed with competitor peptide 1 mg, listed as ala 6): 0/6; Incidence of EAE [4, 8]: 0/6; Comp Assay Prolif (RAT) [6]: plus; Comp Assay Prolif (RAT) ([6]; listed as Ala6): can block proliferation; binding to I-E / MHC (in words) [3]: poor binders; also recorded: poor MHC binder
CC[C@H](C)[C@H](NC(=O)[C@H](CC(N)=O)NC(=O)[C@H](CCCCN)NC(=O)[C@H](Cc1ccccc1)NC(=O)[C@H](Cc1ccccc1)NC(=O)[C@H](Cc1c[nH]cn1)NC(=O)[C@@H](N)C(C)C)C(=O)N[C@H](C(=O)N[C@@H](C)C(=O)N1CCC[C@H]1C(=O)N[C@@H](CCCNC(=N)N)C(=O)N[C@H](C(=O)N1CCC[C@H]1C(=O)O)[C@@H](C)O)C(C)C [Ala 9]	1/6	negative		EAE (RAT) ([1]; listed as Ala9): 1/6 and nonencephalitogenic; Prolif. ([2]; no key printed, listed as Ala9): weak stimulators
CC[C@H](C)[C@H](NC(=O)[C@H](CC(N)=O)NC(=O)[C@H](CCCCN)NC(=O)[C@H](Cc1ccccc1)NC(=O)[C@H](Cc1ccccc1)NC(=O)[C@H](Cc1c[nH]cn1)NC(=O)[C@@H](N)C(C)C)C(=O)N[C@H](C(=O)N[C@H](C(=O)N[C@@H](C)C(=O)N[C@@H](CCCNC(=N)N)C(=O)N[C@H](C(=O)N1CCC[C@H]1C(=O)O)[C@@H](C)O)[C@@H](C)O)C(C)C [Ala 10]	incapable of causing EAE and nonencephalitogenic and 0/6			
CC[C@H](C)[C@H](NC(=O)[C@H](CC(N)=O)NC(=O)[C@H](CCCCN)NC(=O)[C@H](Cc1ccccc1)NC(=O)[C@H](Cc1ccccc1)NC(=O)[C@H](Cc1c[nH]cn1)NC(=O)[C@@H](N)C(C)C)C(=O)N[C@H](C(=O)N[C@H](C(=O)N1CCC[C@H]1C(=O)N[C@@H](C)C(=O)N[C@H](C(=O)N1CCC[C@H]1C(=O)O)[C@@H](C)O)[C@@H](C)O)C(C)C [Ala 11]	4/6	negative	20	
CC[C@H](C)[C@H](NC(=O)[C@H](CC(N)=O)NC(=O)[C@H](CCCCN)NC(=O)[C@H](Cc1ccccc1)NC(=O)[C@H](Cc1ccccc1)NC(=O)[C@H](Cc1c[nH]cn1)NC(=O)[C@@H](N)C(C)C)C(=O)N[C@H](C(=O)N[C@H](C(=O)N1CCC[C@H]1C(=O)N[C@@H](CCCNC(=N)N)C(=O)N[C@@H](C)C(=O)N1CCC[C@H]1C(=O)O)[C@@H](C)O)C(C)C [Ala 12]	6/6			
CC[C@H](C)[C@H](NC(=O)[C@H](CC(N)=O)NC(=O)[C@H](CCCCN)NC(=O)[C@H](Cc1ccccc1)NC(=O)[C@H](Cc1ccccc1)NC(=O)[C@H](Cc1c[nH]cn1)NC(=O)[C@@H](N)C(C)C)C(=O)N[C@H](C(=O)N[C@H](C(=O)N1CCC[C@H]1C(=O)N[C@@H](CCCNC(=N)N)C(=O)N[C@H](C(=O)N[C@@H](C)C(=O)O)[C@@H](C)O)[C@@H](C)O)C(C)C [Ala 13]	3/6		10	
